Results published in US4727150A, “Pyridyl methylsulfinyl benzimidazole derivatives” (Takeda Chemical Industries, Ltd., priority 1984, dated 1988).

Key:
gastric mucosa = assay: Ethanol-induced gastric mucosal injury in rats (action of protecting gastric mucosa); type: in vivo, Male Sprague-Dawley rats; details: Rattus norvegicus, po; 6 rats per group; 1, 3, 10 and 30 mg/kg into stomach; 100% ethanol 1 ml orally 30 min later; lesions measured 60 min after ethanol; read-out: Action of protecting gastric mucosa ID50
Procedure: As a method of determining the protecting ability of gastric mucosa, gastric mocosal injury induced by ethanol [Robert A., Gastroenterology 77, 761 (1979)] is often used. This method was applied to evaluation of the compounds of this invention. Male Sprague-Dawley rats of 7-weeks old were fasted for 24 hours. These animals were administered test compounds into stomach by using a gastric tube. After 30 minutes, 1 ml of 100% ethanol was administered orally. The animals were killed by carbon dioxide gas 60 minutes after ethanol administration. The stomach was removed together with the lower part of esophagus and the duodenum. The esophagus was clipped, 10 ml of 1% formalin solution was instilled into the stomach from the duodenum, and then the duodenum was clipped. The whole stomach was immersed in 1% formalin solution. About 15 minutes later, the stomachs were opened along the greater curvature. The length of the lesions which occurred in the gastric antral mucosa was measured under a dissecting microscope with a square-grid eye piece (×10). The sum total length of the individual lesions in each animal was measured, and the average value per group was calculated. Based on the difference between the average value of each group and that of the control group, the inhibition rate was determined. The test compound was suspended in a 5% gum arabic solution, and administered in a volume of 2 ml/kg. | ^(a) Using 6 rats per group, each of the test compounds was | administered in a dose of 1, 3, 10 and 30 mg/kg to determine ID50.

mice = assay: Oral toxicity in mice; type: in vivo; details: oral administration, 500 mg/kg

SMILES | ED50 (gastric mucosa) [mg/kg] | fatal effect (mice)
CC(C)Oc1ccnc(C[S+]([O-])c2nc3cc(C(F)(F)F)ccc3[nH]2)c1 (centres unmarked) | 5.8 | 
CCCOc1ccnc(C[S+]([O-])c2nc3ccccc3[nH]2)c1C (centres unmarked) [2-[3-methyl-4-propoxy-2-pyridyl)methylsulfinylbenzimidazole] | 12.5 | 
COc1ccnc(C[S+]([O-])c2nc3cc(C(F)(F)F)ccc3[nH]2)c1C (centres unmarked) [R^1 =5-CF3, R^2 =CH3, R^3 =CH3, R^4 =H, reference compound] | 24 | 
CC(C)Oc1ccnc(C[S+]([O-])c2nc3cc(F)ccc3[nH]2)c1 (centres unmarked) [R^1 =5-F, R^2 =H, R^3 =CH(CH3)2, R^4 =H] | 8.8 | 
CCCOc1ccnc(C[S+]([O-])c2nc3ccccc3[nH]2)c1 (centres unmarked) [R^1 =H, R^2 =H, R^3 =(CH2)2 CH3, R^4 =H] | 7.2 | no fatal effect
CCCCOc1ccnc(C[S+]([O-])c2nc3ccccc3[nH]2)c1 (centres unmarked) [R^1 =H, R^2 =H, R^3 =(CH2)3 CH3, R^4 =H] | 9.8 | 
CCCCCCOc1ccnc(C[S+]([O-])c2nc3ccccc3[nH]2)c1 (centres unmarked) [R^1 =H, R^2 =H, R^3 =(CH2)5 CH3, R^4 =H] | 1.6 | 
CCCCCCCCOc1ccnc(C[S+]([O-])c2nc3ccccc3[nH]2)c1 (centres unmarked) [R^1 =H, R^2 =H, R^3 =(CH2)7 CH3, R^4 =H] | 1.6 | 
CC(C)Oc1ccnc(C[S+]([O-])c2nc3ccccc3[nH]2)c1 (centres unmarked) [R^1 =H, R^2 =H, R^3 =CH(CH3)2, R^4 =H] | 1.3 | 
COc1ccc2[nH]c([S+]([O-])Cc3ncc(C)c(OC)c3C)nc2c1 (centres unmarked) [reference compound] | 22 | 
